By IC50 is commonly meant the concentration that gives 50% inhibition.

Where a SMILES comes first, the peptide text is derived from it. Bridges are numbered along the chain shown (N, C = ends). [ ]: non-standard residue; d: D form. The star is where a group is joined. Phe(4-COOH) = N[C@@H](Cc1ccc(C(=O)O)cc1)C(=O)O; Phe(4-CH2NH2) = NCc1ccc(C[C@H](N)C(=O)O)cc1; Bip = N[C@@H](Cc1ccc(-c2ccccc2)cc1)C(=O)O; Phe(4-NH2) = Nc1ccc(C[C@H](N)C(=O)O)cc1; Phe(3-Me) = Cc1cccc(C[C@H](N)C(=O)O)c1; Cha = N[C@@H](CC1CCCCC1)C(=O)O; Hpra = C#CCC[C@H](N)C(=O)O; dDab = NCC[C@@H](N)C(=O)O; Carboxymethyl = O=C(O)C*; Orn = NCCC[C@H](N)C(=O)O; dDap = NC[C@@H](N)C(=O)O; Dab = NCC[C@H](N)C(=O)O; Dap = NC[C@H](N)C(=O)O; Propargyl = C#CC*

The target in this experiment is T1, human PD-1 / PD-L1-Ig binding on Jurkat cell line over-expressing human PD-1 (Jurkat-PD-1) (Homo sapiens, UniProt Q15116).
T1 construct: expressed in transfected cells; host or cells: Jurkat
T1 sequence (Q15116 25-288): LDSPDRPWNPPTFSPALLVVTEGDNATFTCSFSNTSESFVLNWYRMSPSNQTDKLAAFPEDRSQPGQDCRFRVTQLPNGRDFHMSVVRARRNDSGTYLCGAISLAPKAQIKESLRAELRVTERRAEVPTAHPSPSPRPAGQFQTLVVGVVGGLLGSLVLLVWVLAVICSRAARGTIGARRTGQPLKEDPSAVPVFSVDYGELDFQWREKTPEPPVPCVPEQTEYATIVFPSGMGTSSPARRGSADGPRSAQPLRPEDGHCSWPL
Nature of the experiment: Jurkat-PD-1 Cell Binding High-Content Screening Assay (CBA). The class given is cell-based. The note with it: Jurkat-PD-1 cells, PE-labeled PD-L1-Ig 20 nM final; read-out: Jurkat HPD1_PDL1 IC50. Put shortly:
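Jurkat cells over-expressing human PD-1, in DMEM/10% FCS, pre-incubated with compound 2 h at 37° C. PE-labeled human PD-L1-Ig (20 nM final) added for 1 h; cells fixed in paraformaldehyde with Hoechst 33342 nuclear stain, washed, and bound fluorescence quantified by high-content imaging.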
Turning to `C#CCOc1ccc(C[C@@H]2NC(=O)[C@H](Cc3ccc(-c4ccccc4)cc3)NC(=O)[C@H](C(C)C)NC(=O)[C@H](Cc3cccc(C)c3)NC(=O)[C@H](CC(=O)O)NC(=O)[C@H](Cc3ccc(C(=O)O)cc3)NC(=O)[C@H](CN)NC(=O)CSC[C@@H](C(=O)N[C@@H](CCN)C(N)=O)NC(=O)[C@H]([C@@H](C)O)NC(=O)[C@H](C(C)C)NC(=O)[C@H](CC3CCCCC3)NC(=O)[C@H](CCN)NC(=O)[C@@H](CC(C)C)NC(=O)[C@H](CCCN)NC2=O)cc1` [Compound 2024] ({CH2CO}-[Dap][Phe(4-COOH)]D[Phe(3-Me)]V[Bip]Y(Propargyl)[Orn][dL][Dab][Cha]VTC[Dab]-NH2; thioether N-14), the IC50 turned out to be 13.6 nM.
As for `C#CCC[C@@H]1NC(=O)[C@@H](CC(C)C)NC(=O)[C@H](CCCN)NC(=O)[C@H](C(C)C)NC(=O)[C@H](Cc2ccc(-c3ccccc3)cc2)NC(=O)[C@H](C(C)C)NC(=O)[C@H](Cc2cccc(C)c2)NC(=O)[C@H](CC(=O)O)NC(=O)[C@H](Cc2ccc(C(=O)O)cc2)NC(=O)[C@H](CN)NC(=O)CSC[C@@H](C(=O)N[C@@H](CCN)C(N)=O)NC(=O)[C@H]([C@@H](C)O)NC(=O)[C@H](C(C)C)NC(=O)[C@H](CC2CCCCC2)NC1=O` [Compound 2025] ({CH2CO}-[Dap][Phe(4-COOH)]D[Phe(3-Me)]V[Bip]V[Orn][dL][Hpra][Cha]VTC[Dab]-NH2; thioether N-14), the figure is 15 nM; as for `C#CCOc1ccc(C[C@@H]2NC(=O)[C@@H](CC(C)C)NC(=O)[C@H](CCCN)NC(=O)[C@H](C(C)C)NC(=O)[C@H](Cc3ccc(-c4ccccc4)cc3)NC(=O)[C@H](C(C)C)NC(=O)[C@H](Cc3cccc(C)c3)NC(=O)[C@H](CC(=O)O)NC(=O)[C@H](Cc3ccc(C(=O)O)cc3)NC(=O)[C@H](CN)NC(=O)CSC[C@@H](C(=O)N[C@@H](CCN)C(N)=O)NC(=O)[C@H]([C@@H](C)O)NC(=O)[C@H](C(C)C)NC(=O)[C@H](CC3CCCCC3)NC2=O)cc1` [Compound 2026] ({CH2CO}-[Dap][Phe(4-COOH)]D[Phe(3-Me)]V[Bip]V[Orn][dL]Y(Propargyl)[Cha]VTC[Dab]-NH2; thioether N-14), 133 nM.
As to `C#CCC[C@@H]1NC(=O)[C@H](CC2CCCCC2)NC(=O)[C@H](CCN)NC(=O)[C@@H](CC(C)C)NC(=O)[C@H](CCCN)NC(=O)[C@H](C(C)C)NC(=O)[C@H](Cc2ccc(-c3ccccc3)cc2)NC(=O)[C@H](C(C)C)NC(=O)[C@H](Cc2cccc(C)c2)NC(=O)[C@H](CC(=O)O)NC(=O)[C@H](Cc2ccc(C(=O)O)cc2)NC(=O)[C@H](CN)NC(=O)CSC[C@@H](C(=O)N[C@@H](CCN)C(N)=O)NC(=O)[C@H]([C@@H](C)O)NC1=O` [Compound 2027] ({CH2CO}-[Dap][Phe(4-COOH)]D[Phe(3-Me)]V[Bip]V[Orn][dL][Dab][Cha][Hpra]TC[Dab]-NH2; thioether N-14), the IC50 came to 10.3 nM.
Then `C#CCOc1ccc(C[C@@H]2NC(=O)[C@H](CC3CCCCC3)NC(=O)[C@H](CCN)NC(=O)[C@@H](CC(C)C)NC(=O)[C@H](CCCN)NC(=O)[C@H](C(C)C)NC(=O)[C@H](Cc3ccc(-c4ccccc4)cc3)NC(=O)[C@H](C(C)C)NC(=O)[C@H](Cc3cccc(C)c3)NC(=O)[C@H](CC(=O)O)NC(=O)[C@H](Cc3ccc(C(=O)O)cc3)NC(=O)[C@H](CN)NC(=O)CSC[C@@H](C(=O)N[C@@H](CCN)C(N)=O)NC(=O)[C@H]([C@@H](C)O)NC2=O)cc1` [Compound 2028] ({CH2CO}-[Dap][Phe(4-COOH)]D[Phe(3-Me)]V[Bip]V[Orn][dL][Dab][Cha]Y(Propargyl)TC[Dab]-NH2; thioether N-14), with 9.3 nM.
As for `Cc1cccc(C[C@@H]2NC(=O)[C@H](CC(=O)O)NC(=O)[C@H](Cc3ccc(C(=O)O)cc3)NC(=O)[C@H](CN)NC(=O)CSC[C@@H](C(=O)N[C@@H](CCN)C(N)=O)NC(=O)[C@@H](CCN)NC(=O)[C@H](C(C)C)NC(=O)[C@H](CC3CCCCC3)NC(=O)[C@H](CCN)NC(=O)[C@@H](CC(C)C)NC(=O)[C@H](CCCN)NC(=O)[C@H](C(C)C)NC(=O)[C@H](Cc3ccc(-c4ccccc4)cc3)NC(=O)[C@H](C(C)C)NC2=O)c1` [Compound 2029] ({CH2CO}-[Dap][Phe(4-COOH)]D[Phe(3-Me)]V[Bip]V[Orn][dL][Dab][Cha]V[dDab]C[Dab]-NH2; thioether N-14), the figure is 4.1 nM.
As for `Cc1cccc(C[C@@H]2NC(=O)[C@H](CC(=O)O)NC(=O)[C@H](Cc3ccc(C(=O)O)cc3)NC(=O)[C@H](CN)NC(=O)CSC[C@@H](C(=O)N[C@@H](CCN)C(N)=O)NC(=O)[C@@H](CN)NC(=O)[C@H](C(C)C)NC(=O)[C@H](CC3CCCCC3)NC(=O)[C@H](CCN)NC(=O)[C@@H](CC(C)C)NC(=O)[C@H](CCCN)NC(=O)[C@H](C(C)C)NC(=O)[C@H](Cc3ccc(-c4ccccc4)cc3)NC(=O)[C@H](C(C)C)NC2=O)c1` [Compound 2030] ({CH2CO}-[Dap][Phe(4-COOH)]D[Phe(3-Me)]V[Bip]V[Orn][dL][Dab][Cha]V[dDap]C[Dab]-NH2; thioether N-14), the IC50 was determined as 14.7 nM.
Turning to `Cc1cccc(C[C@@H]2NC(=O)[C@H](CC(=O)O)NC(=O)[C@H](Cc3ccc(C(=O)O)cc3)NC(=O)[C@H](CN)NC(=O)CSC[C@@H](C(N)=O)NC(=O)[C@H](CO)NC(=O)[C@H](C(C)C)NC(=O)[C@H](CC3CCCCC3)NC(=O)[C@H](CCN)NC(=O)[C@@H](CC(C)C)NC(=O)[C@H](CCCN)NC(=O)[C@H](C(C)C)NC(=O)[C@H](Cc3ccc(-c4ccccc4)cc3)NC(=O)[C@H](Cc3ccc(CN)cc3)NC2=O)c1` [Compound 2031] ({CH2CO}-[Dap][Phe(4-COOH)]D[Phe(3-Me)][Phe(4-CH2NH2)][Bip]V[Orn][dL][Dab][Cha]VSC-NH2; thioether N-14), the half-inhibitory concentration (IC50) was 10.9 nM.
In the case of `CC(C)C[C@H]1NC(=O)[C@H](CCCN)NC(=O)[C@H](C(C)C)NC(=O)[C@H](Cc2ccc(-c3ccccc3)cc2)NC(=O)[C@H](C(C)C)NC(=O)[C@H](Cc2ccc(N)cc2)NC(=O)[C@H](CC(=O)O)NC(=O)[C@H](Cc2ccc(OCC(=O)O)cc2)NC(=O)[C@H](CN)NC(=O)CSC[C@@H](C(=O)N[C@@H](CCN)C(N)=O)NC(=O)[C@H](CCCCN)NC(=O)[C@H](C(C)C)NC(=O)[C@H](CC2CCCCC2)NC(=O)[C@H](CCN)NC1=O` [Compound 2032] ({CH2CO}-[Dap]Y(Carboxymethyl)D[Phe(4-NH2)]V[Bip]V[Orn][dL][Dab][Cha]VKC[Dab]-NH2; thioether N-14), the IC50 stood at 18.1 nM.
`CC(C)C[C@H]1NC(=O)[C@H](CCCN)NC(=O)[C@H](C(C)C)NC(=O)[C@H](Cc2ccc(-c3ccccc3)cc2)NC(=O)[C@H](C(C)C)NC(=O)[C@H](Cc2ccc(O)cc2)NC(=O)[C@H](CC(=O)O)NC(=O)[C@H](Cc2ccc(OCC(=O)O)cc2)NC(=O)[C@H](CN)NC(=O)CSC[C@@H](C(=O)N[C@@H](CCN)C(N)=O)NC(=O)[C@H](CCCCN)NC(=O)[C@H](C(C)C)NC(=O)[C@H](CC2CCCCC2)NC(=O)[C@H](CCN)NC1=O` [Compound 2033] ({CH2CO}-[Dap]Y(Carboxymethyl)DYV[Bip]V[Orn][dL][Dab][Cha]VKC[Dab]-NH2; thioether N-14): the IC50 is 18.4 nM.
